Read-outs that look alike come from different tables or passages of the source.
Assays:
B16 melanoma = assay: Transplanted B16 melanoma in mice, tumor inhibition; type: in vivo, C57 mice; conditions: alone or combined, once a day for seven days
Experimental: The tumor tissue was made into cell suspension. […] The blank control group was given normal saline (NS). […] The tumors were excised and weighed. The average tumor weight was calculated for each group.
(§1) A=average tumor weight (g) of blank control group,
B =average tumor weight (g) of therapeutic group

S-180 sarcoma = assay: Transplanted S-180 sarcoma in mice, tumor inhibition
Experimental: Tumors, including B-16 melanoma and S-180 sarcoma, were provided by Shanghai Institute of Materia Medica of the Chinese Academy of Sciences.
The tumor tissue was made into cell suspension. The mice were inoculated subcutaneously in the right axilla with the cell suspension, about 4.5-5×10^6 cells/mouse. After 24 hours, the mice were randomly divided into different groups and housed in separate cages (n=6). […] The administration began on the second day and lasted for seven days, with different doses. The blank control group was given normal saline (NS). The animals were sacrificed and weighed (g body weight) 24 hours after drug withdrawal. The tumors were excised and weighed. The average tumor weight was calculated for each group. According to the following formula, the tumor inhibition rate was calculated and T test was conducted.
According to the formula below, the tumor inhibition rate was calculated and T test was conducted.
as §1
B=average tumor weight (g) of therapeutic group

pancreatic carcinoma = conditions: cited from earlier work
liver cancer = conditions: treatment group (placebo control group 7.9 months); cited from earlier work
[1] = Table 14: Adriamycin 1 mg/kg i.p, Algal proteoglycan 30 mg/kg p.o
[2] = Table 17: Etoposide 3 mg/kg i.p, Algal proteoglycan 20 mg/kg p.o, alone or combined, once a day for seven days
[3] = Table 18: 5-Fluorouracil 15 mg/kg i.p, Algal proteoglycan 20 mg/kg p.o, alone or combined, once a day for seven days
[4] = Table 15: Cyclophosphamide 7.5 mg/kg i.p, Algal proteoglycan 60 mg/kg p.o, alone or combined, once a day for seven days
[5] = Table 12: Carboplatin 4 mg/kg i.p, Algal proteoglycan 30 mg/kg p.o
[6] = Table 13: Carboplatin 4 mg/kg i.p, Algal proteoglycan 60 mg/kg p.o
[7] = Table 16: Carboplatin 4 mg/kg i.p, Algal proteoglycan 20 mg/kg p.o, alone or combined, once a day for seven days

COc1cccc2c1C(=O)c1c(O)c3c(c(O)c1C2=O)C[C@@](O)(C(=O)CO)C[C@@H]3O[C@H]1C[C@H](N)[C@H](O)[C@H](C)O1 [Adriamycin]
Tumor Inhibition Rate (%) (B16 melanoma; [1]): 41.5%
Tumor Weight (g) x ± SD (B16 melanoma; [1]): 1.97 ± 0.84 g

COc1cc([C@@H]2c3cc4c(cc3[C@@H](O[C@@H]3O[C@@H]5CO[C@@H](C)O[C@H]5[C@H](O)[C@H]3O)[C@H]3COC(=O)[C@H]23)OCO4)cc(OC)c1O [Etoposide]
Tumor Inhibition Rate (%) (S-180 sarcoma; [2]): 26.9%
Tumor Weight (g) x ± SD (S-180 sarcoma; [2]): 1.33 ± 0.28 g

Gemcitabine + cisplatin
Overall survival (pancreatic carcinoma; Colucci et al, 400 cases): 8.2 months
Overall survival (pancreatic carcinoma; Heinemann et al, 195 cases): 7.5 months

Nc1ccn([C@@H]2O[C@H](CO)[C@@H](O)C2(F)F)c(=O)n1 [Gemcitabine FDR.]
Overall survival (pancreatic carcinoma; Poplon et al, 832 cases): 6.2 months

Nc1ccn([C@@H]2O[C@H](CO)[C@@H](O)C2(F)F)c(=O)n1 [Gemcitabine]
Overall survival (pancreatic carcinoma; Abou-Alfa et al, 349 cases): 6.2 months
Overall survival (pancreatic carcinoma; Berlin et al, 322 cases): 5.4 months
Overall survival (pancreatic carcinoma; Colucci et al, 400 cases): 7.2 months
Overall survival (pancreatic carcinoma; Cunningham et al, 533 cases): 7.1 months
Overall survival (pancreatic carcinoma; Heinemann et al, 195 cases): 6.0 months
Overall survival (pancreatic carcinoma; Hermann et al, 319 cases): 7.2 months
Overall survival (pancreatic carcinoma; Louvet et al, 313 cases): 7.1 months
Overall survival (pancreatic carcinoma; Oettle et al, 565 cases): 6.3 months
Overall survival (pancreatic carcinoma; Poplon et al, 832 cases): 4.9 months
Overall survival (pancreatic carcinoma; Rocha Lima et al, 342 cases): 6.3 months
Overall survival (pancreatic carcinoma; Starhopoulos et al, 145 cases): 6.4 months

O=c1[nH]cc(F)c(=O)[nH]1 [5-Fluorouracil, 5-fluorouracil]
inhibitory effect on the transplanted tumor of S-180 sarcoma, in words (S-180 sarcoma; 5-fluorouracil 15 mg/kg used alone): moderate inhibitory effect
Tumor Inhibition Rate (%) (S-180 sarcoma; [3]): 33.8%
Tumor Weight (g) x ± SD (S-180 sarcoma; [3]): 1.04 ± 0.52 g

CNC(=O)c1cc(Oc2ccc(NC(=O)Nc3ccc(Cl)c(C(F)(F)F)c3)cc2)ccn1 [Sorafenib]
median survival time (liver cancer): 10.7 months

Gemcitabine + capecitabine
Overall survival (pancreatic carcinoma; Cunningham et al, 533 cases): 6.2 months
Overall survival (pancreatic carcinoma; Hermann et al, 319 cases): 8.4 months

O=P1(N(CCCl)CCCl)NCCCO1 (stereo not drawn) [Cyclophosphamide]
Body Weight (g) in the Beginning (S-180 sarcoma; [4]): 22.8 g
Body Weight (g) in the End (S-180 sarcoma; [4]): 24.9 g
Tumor Inhibition Rate (%) (S-180 sarcoma; [4]): 42.2%
Tumor Weight (g) x ± SD (S-180 sarcoma; [4]): 1.11 ± 0.24 g

N.N.O=C([O-])C1(C(=O)[O-])CCC1.[Pt+2] [Carboplatin]
Body Weight (g) in the Beginning (B16 melanoma; [5]): 18.0 g
Body Weight (g) in the End (B16 melanoma; [5]): 16.7 g
Tumor Inhibition Rate (%) (B16 melanoma; [5]): 28.2%
Tumor Weight (g) x ± SD (B16 melanoma; [5]): 1.07 ± 0.88 g
Body Weight (g) in the Beginning (B16 melanoma; [6]): 20.3 g
Tumor Inhibition Rate (%) (B16 melanoma; [6]): 14.0%
Tumor Weight (g) x ± SD (B16 melanoma; [6]): 1.23 ± 0.37 g
inhibitory effect on the growth of the transplanted tumor of S-180 sarcoma, in words (S-180 sarcoma; Carboplatin 4 mg/kg used alone (P>0.05)): no inhibitory effect
Body Weight (g) in the End (S-180 sarcoma; [7]): 26.4 g
Tumor Inhibition Rate (%) (S-180 sarcoma; [7]): 7.7%
Tumor Weight (g) x ± SD (S-180 sarcoma; [7]): 1.68 ± 0.53 g
